Source: patent publication US7601686B2, “Hepatitis C virus inhibitors” (Bristol-Myers Squibb Company, priority 2005, dated 2009)
Read-outs that look alike come from different tables or passages of the source.

Test system: HCV replicon in HUH-7 cells
Assay: HCV replicon FRET assay
Assay type: cell-based, Hepatitis C virus (strain 1b)
Conditions: Hepatitis C virus
Method in brief: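 HUH-7 cells stably carrying a genotype 1b subgenomic HCV replicon (neo selection) treated with compound for 4 days at 37 °C, 0.5% DMSO final. Cytotoxicity (CC50) from alamar Blue fluorescence after 4 h (ex 530/em 580 nm), before the FRET replication read-out.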

Compound: C=CC1CC1(NC(=O)[C@@H]1C[C@@H](NC(=O)c2cc(-c3ccccc3)nc3ccccc23)CN1C(=O)[C@@H](NC(=O)CC1CC1)C(C)(C)C)C(=O)NS(=O)(=O)C1CC1 (some centres unmarked) [Compound 9]
- EC50 (HCV replicon cell assay, HUH-7, read-out: EC50 Range): 150 to 15000 nM
- EC50 (HCV replicon, HUH-7 cells, read-out: EC50 value in the replicon assay): 2250 nM
